Measured values: US11725036B2, “Modified lipidated relaxin B chain peptides and their therapeutic use” (Sanofi, priority 2018, dated 2023)
Starred links: 1 amine or outer side, 2 acyl side, 3 side chain; linkers in the order of their positions; H or OH if unused. Non-standard residues stand in square brackets, D forms with d. Residues, ends and D or L forms follow the SMILES beside them. Groups on a side chain read outwards from the residue. *: point of attachment. X1 = CCCCCCCCCCCCCCCC(=O)N[C@@H](CCC(=O)N[C@@H](CCC(=O)N[C@@H](CCC(=O)NCCCOCCOCCOCCCNC(=O)CCC(=O)NCCCOCCOCCOCCCNC(=O)CCC(=O)NCCCOCCOCCOCCCN*)C(=O)O)C(=O)O)C(=O)O; X6 = CCCCCCCCCCCCCC(=O)N[C@@H](CCC(=O)N[C@@H](CCC(=O)N[C@@H](CCC(=O)NCCCOCCOCCOCCCNC(=O)CCC(=O)NCCCOCCOCCOCCCNC(=O)CCC(=O)NCCCOCCOCCOCCCN*)C(=O)O)C(=O)O)C(=O)O; Suc = O=C(CCC(=O)[*:2])[*:1]; αMeK = C[C@](N)(CCCCN)C(=O)O; Aib = CC(C)(N)C(=O)O

Molecular target: T1, RXFP1 (Homo sapiens, UniProt Q9HBX9)
T1 construct: OVCAR5 cells expressing endogenous RXFP1; endogenous in cells; host or cells: OVCAR5
T1 sequence (Q9HBX9 1-757): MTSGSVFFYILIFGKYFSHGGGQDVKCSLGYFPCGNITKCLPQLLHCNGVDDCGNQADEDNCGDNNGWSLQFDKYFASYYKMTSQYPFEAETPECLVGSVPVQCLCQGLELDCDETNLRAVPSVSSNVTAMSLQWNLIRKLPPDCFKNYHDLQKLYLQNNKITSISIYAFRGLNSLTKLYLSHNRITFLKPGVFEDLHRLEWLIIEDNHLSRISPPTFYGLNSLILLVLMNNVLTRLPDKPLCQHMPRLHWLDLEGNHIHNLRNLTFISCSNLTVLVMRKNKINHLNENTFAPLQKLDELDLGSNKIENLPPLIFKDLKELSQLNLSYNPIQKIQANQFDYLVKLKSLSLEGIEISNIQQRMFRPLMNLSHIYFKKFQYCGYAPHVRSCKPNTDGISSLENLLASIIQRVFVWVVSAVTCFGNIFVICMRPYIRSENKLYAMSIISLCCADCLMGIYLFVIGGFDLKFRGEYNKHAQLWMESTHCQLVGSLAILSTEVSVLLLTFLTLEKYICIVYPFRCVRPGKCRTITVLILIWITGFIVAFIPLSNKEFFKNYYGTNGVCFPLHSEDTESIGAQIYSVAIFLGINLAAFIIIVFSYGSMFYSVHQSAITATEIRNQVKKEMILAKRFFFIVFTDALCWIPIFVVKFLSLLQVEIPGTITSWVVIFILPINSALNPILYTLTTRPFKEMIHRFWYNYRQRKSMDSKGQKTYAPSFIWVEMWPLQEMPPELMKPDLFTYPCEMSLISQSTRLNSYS
Test: OVCAR5 cAMP assay (HTRF)
Type: cell-based
Conditions: for EC50: OVCAR 5 cells expressing endogenous RXFP1, cAMP readout; for Emax: OVCAR 5 cells, maximal cAMP relative to H2-relaxin
Description: OVCAR5 cells expressing endogenous RXFP1 were used to test RXP1 agonist properties of peptides of the invention, and in particular of the peptides of sequence SEQ ID NO: 1-97.
Since RXFP1 is a Gs coupled GPCR, cAMP was used as readout of RXFP1 activation.
Isobutyl Methyl Xanthine (IBMX) was used to inhibit phosphodiesterase activity facilitating cAMP measurements. HTRF (Homogenous Time Resolved Fluorescence) technology was used to detect cAMP due to its great sensitivity.
In summary, OVCAR5 were grown in regular medium (RPMI) containing 10% fetal calf serum (FCS) and 1% antibiotics (penicillin/streptomycin).
Before the experiments, cells were detached with accutase and incubated for 40 minutes at 37° C. with 1 mM (3-isobutyl-1-methylxanthine) IBMX.
Cells were then distributed in 384 black well plates containing increasing concentrations of the different peptides in a fix volume of medium (without FCS).
After an incubation of 30 min at 37° C. in an humid incubator in 5% CO2, the reaction was stopped by adding a fixed volume of a solution containing a lysis buffer and cAMP-D2 (cAMP labeled with the dye d2) and the anti cAMP antibody linked to Europium and used for cAMP detection.
Readout of the experiment were performed on a fluorimeter allowing HTRF measurement. Activation curves were generated by plotting the intracellular value of cAMP versus log 10 of the compound concentration.
The 50% activation concentration (EC50) was calculated by nonlinear regression using the sigmoidal dose-response (variable slope) equation with Prism 5 software.
Emax % was determined as the maximal intracellular value of cAMP for test compound (upper limit of cAMP vs concentration curve) divided by the maximal intracellular value of cAMP for H2-relaxin determined in the same test occasion multiplied by 100. Emax %=100×[cAMPtest cpd]/[cAMPH2-Rlx]

| SMILES | EC50 | Emax |
| --- | --- | --- |
| CCCCCCCCCCCCCCCC(=O)N[C@@H](CCC(=O)N[C@@H](CCC(=O)N[C@@H](CCC(=O)NCCCOCCOCCOCCCNC(=O)CCC(=O)NCCCOCCOCCOCCCNC(=O)CCC(=O)NCCCOCCOCCOCCCNC(=O)CCC(=O)NCCCC[C@H](NC(=O)CNC(=O)[C@H](CCC(=O)O)NC(=O)C(C)(C)NC(=O)C(C)(C)NC(=O)[C@@H](NC(=O)[C@H](CCCCNC(C)=O)NC(=O)[C@H](C)NC(=O)[C@H](CCCNC(=N)N)NC(=O)[C@@H](NC(=O)[C@H](CCCCN)NC(=O)[C@H](CCC(=O)O)NC(=O)[C@H](CCCNC(=N)N)NC(=O)CNC(=O)[C@H](CCC(=O)O)NC(=O)[C@H](CC(C)C)NC(C)=O)C(C)C)[C@@H](C)CC)C(=O)N[C@@H](CO)C(=O)N[C@H](C(=O)N[C@@H](Cc1ccccc1)C(=O)N[C@@H](CO)C(=O)NC(C)(C)C(=O)N[C@@H](CCCNC(=N)N)C(=O)N[C@@H](C)C(=O)N[C@@H](CCCCNC(C)=O)C(N)=O)[C@@H](C)O)C(=O)O)C(=O)O)C(=O)O [compound 2] (Ac-LEGREKVRAK(Ac)I[Aib][Aib]EGK([Suc-X1])STFS[Aib]RAK(Ac)-NH2) | 2.4 nM | 99% |
| CCCCCCCCCCCCCCCC(=O)N[C@@H](CCC(=O)N[C@@H](CCC(=O)N[C@@H](CCC(=O)NCCCOCCOCCOCCCNC(=O)CCC(=O)NCCCOCCOCCOCCCNC(=O)CCC(=O)NCCCOCCOCCOCCCNC(=O)CCC(=O)NCCCC[C@H](NC(=O)CNC(=O)[C@H](CCC(=O)O)NC(=O)C(C)(C)NC(=O)C(C)(C)NC(=O)[C@@H](NC(=O)[C@H](CCCCNC(C)=O)NC(=O)[C@H](C)NC(=O)[C@H](CCCNC(=N)N)NC(=O)[C@@H](NC(=O)[C@H](CCCCN)NC(=O)[C@H](CCC(=O)O)NC(=O)[C@H](CCCNC(=N)N)NC(=O)CNC(=O)[C@H](CCC(=O)O)NC(=O)[C@H](CCCCNC(C)=O)NC(C)=O)C(C)C)[C@@H](C)CC)C(=O)N[C@@H](CO)C(=O)N[C@H](C(=O)N[C@@H](Cc1ccccc1)C(=O)N[C@@H](CO)C(=O)N[C@@](C)(CCCCN)C(=O)N[C@@H](CCCNC(=N)N)C(=O)N[C@@H](C)C(=O)N[C@@H](CCCCNC(C)=O)C(N)=O)[C@@H](C)O)C(=O)O)C(=O)O)C(=O)O [compound 81] (Ac-K(Ac)EGREKVRAK(Ac)I[Aib][Aib]EGK([Suc-X1])STFS[αMeK]RAK(Ac)-NH2) | 0.16 nM | 98% |
| CCCCCCCCCCCCCCCC(=O)N[C@@H](CCC(=O)N[C@@H](CCC(=O)N[C@@H](CCC(=O)NCCCOCCOCCOCCCNC(=O)CCC(=O)NCCCOCCOCCOCCCNC(=O)CCC(=O)NCCCOCCOCCOCCCNC(=O)CCC(=O)NCCCC[C@H](NC(=O)CNC(=O)[C@H](CCC(=O)O)NC(=O)C(C)(C)NC(=O)C(C)(C)NC(=O)[C@@H](NC(=O)[C@H](CCCCNC(C)=O)NC(=O)[C@H](C)NC(=O)[C@H](CCCNC(=N)N)NC(=O)[C@@H](NC(=O)[C@H](CCCCN)NC(=O)[C@H](CCC(=O)O)NC(=O)[C@H](CCCNC(=N)N)NC(=O)CNC(=O)[C@H](CCC(=O)O)NC(=O)[C@H](CC(C)C)NC(C)=O)C(C)C)[C@@H](C)CC)C(=O)N[C@@H](CO)C(=O)N[C@H](C(=O)N[C@@H](Cc1ccccc1)C(=O)NC(C)(C)C(=O)N[C@@H](CCCCN)C(=O)N[C@@H](CCCNC(=N)N)C(=O)N[C@@H](C)C(=O)N[C@@H](CCCCNC(C)=O)C(N)=O)[C@@H](C)O)C(=O)O)C(=O)O)C(=O)O [compound 15] (Ac-LEGREKVRAK(Ac)I[Aib][Aib]EGK([Suc-X1])STF[Aib]KRAK(Ac)-NH2) | 2.1 nM | 85% |
| CCCCCCCCCCCCCCCC(=O)N[C@@H](CCC(=O)N[C@@H](CCC(=O)N[C@@H](CCC(=O)NCCCOCCOCCOCCCNC(=O)CCC(=O)NCCCOCCOCCOCCCNC(=O)CCC(=O)NCCCOCCOCCOCCCNC(=O)CCC(=O)NCCCC[C@H](NC(=O)CNC(=O)[C@H](CCC(=O)O)NC(=O)C(C)(C)NC(=O)C(C)(C)NC(=O)[C@@H](NC(=O)[C@H](CCCCNC(C)=O)NC(=O)[C@H](C)NC(=O)[C@H](CCCNC(=N)N)NC(=O)[C@@H](NC(=O)[C@H](CCCNC(=N)N)NC(=O)[C@H](CCC(=O)O)NC(=O)[C@H](CCCNC(=N)N)NC(=O)CNC(=O)[C@H](CCC(=O)O)NC(=O)[C@H](CC(C)C)NC(C)=O)C(C)C)[C@@H](C)CC)C(=O)N[C@@H](CO)C(=O)N[C@H](C(=O)N[C@@H](Cc1c[nH]c2ccccc12)C(=O)N[C@@H](CO)C(=O)NC(C)(C)C(=O)N[C@@H](CCCNC(=N)N)C(=O)N[C@@H](CCCCN)C(=O)N[C@@H](CCCCNC(C)=O)C(N)=O)[C@@H](C)O)C(=O)O)C(=O)O)C(=O)O [compound 67] (Ac-LEGRERVRAK(Ac)I[Aib][Aib]EGK([Suc-X1])STWS[Aib]RKK(Ac)-NH2) | 0.48 nM | 95% |
| CCCCCCCCCCCCCC(=O)N[C@@H](CCC(=O)N[C@@H](CCC(=O)N[C@@H](CCC(=O)NCCCOCCOCCOCCCNC(=O)CCC(=O)NCCCOCCOCCOCCCNC(=O)CCC(=O)NCCCOCCOCCOCCCNC(=O)CCC(=O)NCCCC[C@H](NC(=O)CNC(=O)[C@H](CCC(=O)O)NC(=O)C(C)(C)NC(=O)C(C)(C)NC(=O)[C@@H](NC(=O)[C@H](CCCCNC(C)=O)NC(=O)[C@H](C)NC(=O)[C@H](CCCNC(=N)N)NC(=O)[C@@H](NC(=O)[C@H](CCCCN)NC(=O)[C@H](CCC(=O)O)NC(=O)[C@H](CCCNC(=N)N)NC(=O)CNC(=O)[C@H](CCC(=O)O)NC(=O)[C@H](CC(C)C)NC(C)=O)C(C)C)[C@@H](C)CC)C(=O)N[C@@H](CO)C(=O)N[C@H](C(=O)N[C@@H](Cc1ccccc1)C(=O)N[C@@H](CO)C(=O)N[C@@](C)(CCCCN)C(=O)N[C@@H](CCCNC(=N)N)C(=O)N[C@@H](C)C(=O)N[C@@H](CCCCN)C(N)=O)[C@@H](C)O)C(=O)O)C(=O)O)C(=O)O [compound 96] (Ac-LEGREKVRAK(Ac)I[Aib][Aib]EGK([Suc-X6])STFS[αMeK]RAK-NH2) | 0.88 nM | 92% |
| CCCCCCCCCCCCCCCC(=O)N[C@@H](CCC(=O)N[C@@H](CCC(=O)N[C@@H](CCC(=O)NCCCOCCOCCOCCCNC(=O)CCC(=O)NCCCOCCOCCOCCCNC(=O)CCC(=O)NCCCOCCOCCOCCCNC(=O)CCC(=O)NCCCC[C@H](NC(=O)CNC(=O)[C@H](CCC(=O)O)NC(=O)C(C)(C)NC(=O)C(C)(C)NC(=O)[C@@H](NC(=O)[C@H](CCCCNC(C)=O)NC(=O)[C@H](C)NC(=O)[C@H](CCCNC(=N)N)NC(=O)[C@@H](NC(=O)[C@H](CCCCN)NC(=O)[C@H](CCC(=O)O)NC(=O)[C@H](CCCNC(=N)N)NC(=O)CNC(=O)[C@H](CCC(=O)O)NC(=O)[C@H](CC(C)C)NC(C)=O)C(C)C)[C@@H](C)CC)C(=O)N[C@@H](CO)C(=O)N[C@H](C(=O)N[C@@H](Cc1ccccc1)C(=O)N[C@H](CO)C(=O)N[C@@H](CCCCN)C(=O)N[C@@H](CCCNC(=N)N)C(=O)N[C@@H](C)C(=O)N[C@@H](CCCCNC(C)=O)C(N)=O)[C@@H](C)O)C(=O)O)C(=O)O)C(=O)O [compound 14] (Ac-LEGREKVRAK(Ac)I[Aib][Aib]EGK([Suc-X1])STF[dS]KRAK(Ac)-NH2) | 3.2 nM | 90% |
| CCCCCCCCCCCCCCCC(=O)N[C@@H](CCC(=O)N[C@@H](CCC(=O)N[C@@H](CCC(=O)NCCCOCCOCCOCCCNC(=O)CCC(=O)NCCCOCCOCCOCCCNC(=O)CCC(=O)NCCCOCCOCCOCCCNC(=O)CCC(=O)NCCCC[C@H](NC(=O)CNC(=O)[C@H](CCC(=O)O)NC(=O)C(C)(C)NC(=O)C(C)(C)NC(=O)[C@@H](NC(=O)[C@H](CCCCNC(C)=O)NC(=O)C(C)(C)NC(=O)[C@H](CCCNC(=N)N)NC(=O)[C@@H](NC(=O)[C@H](CCCCN)NC(=O)[C@H](CCC(=O)O)NC(=O)[C@H](CCCNC(=N)N)NC(=O)CNC(=O)[C@H](CCC(=O)O)NC(=O)[C@H](CC(C)C)NC(C)=O)C(C)C)[C@@H](C)CC)C(=O)N[C@@H](CO)C(=O)N[C@H](C(=O)N[C@@H](Cc1c[nH]c2ccccc12)C(=O)N[C@@H](CO)C(=O)NC(C)(C)C(=O)N[C@@H](CCCNC(=N)N)C(=O)N[C@@H](CCCCN)C(=O)N[C@@H](CCCCNC(C)=O)C(N)=O)[C@@H](C)O)C(=O)O)C(=O)O)C(=O)O [compound 82] (Ac-LEGREKVR[Aib]K(Ac)I[Aib][Aib]EGK([Suc-X1])STWS[Aib]RKK(Ac)-NH2) |  | 95% |
